Columns and labels:
[1] = molecular target: T1, CX3CR1 (human whole blood leucocytes) (Homo sapiens, UniProt P49238); assay: Cellix flow adhesion of hWB leucocytes to full-length CX3CL1; format: cell-based; details: flow 2.25 dyn·cm^−2, 60 min pre-incubation, n=2, read-out: IC50, prevention of capture (adhesion) of human blood leucocytes to CX3CL1
T1 construct: hWB with heparin as anti-coagulant was collected from healthy donors; from tissue; host or cells: human whole blood leucocytes (healthy volunteers)
T1 sequence (P49238 1-355): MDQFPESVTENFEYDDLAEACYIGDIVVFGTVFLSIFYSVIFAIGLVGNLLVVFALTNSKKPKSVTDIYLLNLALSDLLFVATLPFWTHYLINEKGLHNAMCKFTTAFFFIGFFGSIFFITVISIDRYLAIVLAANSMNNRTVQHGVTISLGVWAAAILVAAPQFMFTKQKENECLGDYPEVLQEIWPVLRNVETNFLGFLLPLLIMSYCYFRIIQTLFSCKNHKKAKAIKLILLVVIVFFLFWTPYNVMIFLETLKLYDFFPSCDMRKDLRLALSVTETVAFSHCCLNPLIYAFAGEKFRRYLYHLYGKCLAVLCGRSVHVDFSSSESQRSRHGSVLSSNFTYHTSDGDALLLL
Experimental: Adhesion of a human B-lymphocyte cell line (RPMI-8226) or hWB leucocytes to full-length human CX3CL1 were monitored using a microfluidics Cellix VenaFlux platform and Vena 8 Biochips (Cellix). Each channel on the Vena 8 chip was coated with anti-His monoclonal antibody (R&D Systems) followed by His-tagged full-length CX3CL1 (R&D Systems) and blocked for non-specific binding (NSB) with BSA.
Cell preparations: RPMI-8226 cells were cultured in RPMI 1640 medium with GlutaMAX and 20% FBS (HyClone, Perbio). Before the experiment, cells were centrifuged at 320 g and resuspended to 5 ×10^6 cells·ml^−1 in RPMI 1640 with 1% FBS. hWB with heparin as anti-coagulant was collected from healthy donors and 5 μM DiOC6 was added. AZD8797 was diluted in a 3-fold series in DMSO starting at 3.3 or 30 μM and pre-incubated with RPMI-8226 cells for 15 min or whole blood for 60 min. DMSO concentration held constant for all AZD8797 concentrations (0.1% for the RPMI-8226 experiments and 0.3% for the whole blood experiments). […]
RPMI-8226 cells in RPMI 1640+1% FBS or whole blood were pumped through the channels at 0.5 dyn·cm^−2 and 2.25 dyn·cm^−2 respectively, for 3 min. Images for quantification were captured using a microscope. Cells adhering to channels were counted and the mean values across five images in each channel were used for calculating the concentration–response curves.

[2] = molecular target: T2, CX3CR1 (Homo sapiens, UniProt P49238); parameters: method as in PMID 23516963; details: HEK293 cells co-transfected with Gqi5-protein; read-out: Ki, 125I-CX3CL1 competition assay; cited from earlier work
T2 sequence (P49238 1-355): T1 sequence (P49238 1-355)

[3] = molecular target: T2, CX3CR1; assay: PathHunter β-arrestin recruitment assay, CHO-K1 CX3CR1 β-arrestin cell line; format: cell-based; parameters: host or cells: CHO-K1
Experimental: β-Arrestin recruitment was measured using the PathHunter™ enzyme fragment complementation assay from DiscoveRx and carried out according to the manufacturer's instructions. In short, 3500 cells per well in Opti-MEM were incubated together with different concentrations of AZD8797 and CX3CL1 in a 384-well plate. After 90 min of incubation at 37°C, detection reagent was added and incubation continued for 1 h at room temperature, before reading the plate with a Victor^2 luminescence plate reader (PerkinElmer). As in the [^35S]GTPγS binding assay, the final DMSO concentration was held constant at 1%.

[4] = molecular target: T2, CX3CR1; assay: 125I-CX3CL1 competition binding, CHO-hCX3CR1 membranes; parameters: host or cells: CHO-K1
Experimental: Adherent CHO-K1 cells stably expressing human CX3CR1 (CHO-hCX3CR1) were grown in F12 medium with GlutaMAX, 10% FBS (Sigma–Aldrich) and 400 μg·ml^−1 geneticin and harvested at 80% confluency. Cells were washed in PBS and lysed with an Ultra-Turrax Homogenizer in 50 mM Tris/HCl (pH 7.4) and 1 mM EDTA with Complete™ protease inhibitor (Roche). […] Protein concentration was determined using the BCA method (Thermo Fisher Scientific). […] The filter plate was washed in ice-cold 25 mM HEPES (pH 7.4), 5 mM MgCl2, 1 mM CaCl2 and 500 mM NaCl and dried at 50°C for 1 h. Scintillation cocktail, Optiphase Supermix (PerkinElmer) was added to each well and the radioactivity was measured using a MicroBeta Trilux reader (PerkinElmer). All analysis and calculations were performed using GraphPad Prism 6.01. Functional and competition binding data were analysed using non-linear regression and fitted to a sigmoidal dose-response with variable slope according to the following equation: […] where Y is the amount of radioligand bound (cpm) or functional effect, Top denotes maximal asymptotic binding, and Bottom denotes the minimal asymptotic binding. XC50 is either the EC50 or the IC50 value, and X is the logarithm of the test compound concentration. Ki values were calculated from IC50 values using the Cheng–Prusoff equation: […]

In the case of `CC(C)C[C@H](CO)Nc1nc(S[C@@H](C)c2ccccc2)nc2nc(N)sc12` [AZD8797], the IC50 [1] is given as 330 nM, the Ki [2] is given as 4 nM and the “Increase of CX3CL1 efficacy in β-arrestin recruitment” value ([3]; 16 and 140 nM AZD8797, efficacy enhanced, not potency) is given as about 2 fold. The “Effect on β-arrestin recruitment, compound alone” value ([3]; AZD8797 alone) was “no effect”, the “CX3CL1-induced β-arrestin recruitment at higher concentrations” value ([3]; higher concentrations of AZD8797) was “almost abolished” and the “Lower potency than unlabelled CX3CL1 in displacing 125I-CX3CL1” value [4] was 1000 fold. It also gave an EC50 ([4]; 10 pM 125I-CX3CL1, n=3, read-out: EC50, displacement of 125I-CX3CL1) of 310 nM.

— PMC4764977, “AZD8797 is an allosteric non-competitive modulator of the human CX3CR1 receptor” (Biochemical Journal, 2016)
